# Test results: ChEMBL document CHEMBL4651402, “Screening of ~5500 FDA-approved drugs and clinical candidates for anti-SARS-CoV-2 activity” (2021)
# Peptide text beside a SMILES is read from it.
# System: SARS-CoV-2
# Assay: microbe, parasite or virus in culture
# Details: Severe acute respiratory syndrome coronavirus 2, Vero C1008, 48 h
Structure (SMILES),IC50,IC50 (read-out: pIC50 (converted))
CC1(C)Oc2ccc(C#N)cc2[C@@H](N2CCCC2=O)[C@@H]1O [LEVCROMAKALIM],> 20 µM,> 20 µM
CC(C)OC(=O)OCOP(=O)(CO[C@H](C)Cn1cnc2c(N)ncnc21)OCOC(=O)OC(C)C [TENOFOVIR DISOPROXIL],> 20 µM,> 20 µM
Cn1ncnc1[C@H]1c2n[nH]c(=O)c3cc(F)cc(c23)N[C@@H]1c1ccc(F)cc1 [TALAZOPARIB],> 20 µM,> 20 µM
CCCCCCCCCCCCCCCC(=O)NCCO [PALMIDROL],> 20 µM,> 20 µM
CCCCCC(=O)O[C@]1(C(C)=O)CCC2C3CCC4=CC(=O)CCC4(C)C3CCC21C (stereo not given in full),> 20 µM,> 20 µM
"COC1=CC(=O)C=C(OC)C1=O [2,6-DIMETHOXYQUINONE]",> 20 µM,> 20 µM
NCCCC[C@H](N[C@@H](CCc1ccccc1)C(=O)O)C(=O)N1CCC[C@H]1C(=O)O [LISINOPRIL ANHYDROUS],> 20 µM,> 20 µM
CCC(=O)OCC(=O)[C@@]1(OC(=O)CC)[C@H](C)C[C@H]2[C@H]3[C@H]([C@@H](O)C[C@@]21C)[C@@]1(C)C=CC(=O)C=C1C[C@H]3Cl [ALCLOMETASONE DIPROPIONATE],> 20 µM,> 20 µM
COC(=O)N[C@@H](C(=O)N1CCC[C@@H]1c1ncc(-c2ccc(-c3ccc(-c4cnc([C@H]5CC6(CN5C(=O)[C@H](NC(=O)OC)C(C)C)OCCO6)[nH]4)cc3)cc2)[nH]1)C(C)C,> 20 µM,> 20 µM
CC(=O)OC1CCC2C3CCC4C/C(=N\Oc5ccc([N+](=O)[O-])cc5)C(Cl)CC4(C)C3CCC12C (stereo not given),> 20 µM,> 20 µM
CCC(N)C(O)c1ccc(O)c(O)c1 (stereo not given) [ETHYLNOREPINEPHRINE],> 20 µM,> 20 µM
N#Cc1cc2c(OCC(O)CN3CCN(C(c4ccccc4)c4ccccc4)CC3)cccc2[nH]1 (stereo not given),> 20 µM,> 20 µM
CC(=O)O[C@H]1CC[C@@]2(C)C(=CC(=O)[C@@H]3[C@@H]2CC[C@]2(C)C(=O)CC[C@@H]32)C1,> 20 µM,> 20 µM
COc1ccc2[nH]c([S+]([O-])Cc3ncc(C)c(OC)c3C)nc2c1 (stereo not given) [OMEPRAZOLE],> 20 µM,> 20 µM
[O-][N+]1=C(c2ccccc2)c2cc(Cl)ccc2N=C(NCC2CC2)C1 [CYPRAZEPAM],> 20 µM,> 20 µM
CC(=O)OC1CC2CCC3C(CCC4(C)C3CC(N3CC[N+](C)(C)CC3)C4OC(C)=O)C2(C)CC1N1CC[N+](C)(C)CC1 (stereo not given),> 20 µM,> 20 µM
CC(Oc1c(Cl)cccc1Cl)C1=NCCN1 (stereo not given) [LOFEXIDINE],> 20 µM,> 20 µM
O=c1[nH]cc(F)c(=O)[nH]1 [FLUOROURACIL],> 20 µM,> 20 µM
CC(C)C(N)C(=O)NC(Cc1ccc(O)cc1)C(=O)O (stereo not drawn) (H-Val-Tyr-OH; configuration not given here),> 20 µM,> 20 µM
COc1cc(=O)n(C)c2c(OCC(O)C(C)(C)O)cccc12 (stereo not given),> 20 µM,> 20 µM
CCCOc1cc(N)ccc1C(=O)OCCN(CC)CC [PROPOXYCAINE],> 20 µM,> 20 µM
N[C@H](CCC(=O)NCCS(=O)(=O)O)C(=O)O,> 20 µM,> 20 µM
CC(C)NCC(O)c1ccc(O)c(NS(C)(=O)=O)c1 (stereo not given) [SOTERENOL],> 20 µM,> 20 µM
CCCCCCCC/C=C\CCCCCCCC(=O)O [OLEIC ACID],> 20 µM,> 20 µM
CC(C)N1CCN(c2ccc(N3CCN(c4ccc(OC[C@@H]5OC[C@@](Cn6cncn6)(c6ccc(F)cc6F)O5)cc4)CC3)cc2)C1=O,> 20 µM,> 20 µM

Structure (SMILES),IC50,IC50 (read-out: pIC50 (converted))
O=c1n(CC2CO2)c(=O)n(CC2CO2)c(=O)n1CC1CO1 (stereo not given) [TEROXIRONE],> 20 µM,> 20 µM
CC(C)(C)NCC(O)COc1cccc2c1C(=O)OC2 (stereo not given) [AFUROLOL],> 20 µM,> 20 µM
CC1(C)CC(=O)c2c(C(F)(F)F)nn(-c3ccc(C(N)=O)c(N[C@H]4CC[C@H](OC(=O)CN)CC4)c3)c2C1 [SNX 5422],> 20 µM,> 20 µM
Cc1cc(C(C#N)c2ccc(Cl)cc2)c(Cl)cc1NC(=O)c1cc(I)cc(I)c1O (stereo not given) [CLOSANTEL],> 20 µM,> 20 µM
COc1cc(C)[nH]c(=O)c1CNC(=O)c1c(C)n([C@H](C)C2CCN(CC(F)(F)F)CC2)c2ccccc12 [CPI-1205],> 20 µM,> 20 µM
O=C1CC[C@H](N2Cc3c(OCc4ccc(CN5CCOCC5)cc4)cccc3C2=O)C(=O)N1 [IBERDOMIDE],> 20 µM,> 20 µM
Cc1nnc(SCC2=C(C(=O)O)N3C(=O)C(NC(=O)C(N)c4ccc(O)cc4)C3SC2)s1 (stereo not given),> 20 µM,> 20 µM
NC(=O)OC[C@@H](N)Cc1ccccc1,> 20 µM,> 20 µM
CSCC1CN(/N=C/c2ccc([N+](=O)[O-])o2)C(=O)O1 (stereo not given),> 20 µM,> 20 µM
COc1cc2ccc(=O)oc2cc1O [SCOPOLETIN],> 20 µM,> 20 µM
CN1CCc2cc(Cl)c(O)cc2[C@@H](c2ccccc2)C1 [SCH-23390],> 20 µM,> 20 µM
[2H]c1c([2H])c(-c2ccc(F)cc2F)c([2H])c(C(=O)O)c1O,> 20 µM,> 20 µM
C[C@H]1O[C@H](O[C@H]2[C@H](O)[C@@H](O)[C@@H](O[C@@H]([C@H](O)[C@@H](O)C=O)[C@H](O)CO)O[C@@H]2CO)[C@H](O)[C@@H](O)[C@@H]1N[C@H]1C=C(CO)[C@@H](O)[C@H](O)[C@H]1O.C[C@H]1O[C@H](O[C@H]2[C@H](O)[C@@H](O)[C@@H](O[C@H]3[C@H](O)[C@@H](O)[C@H](O)O[C@@H]3CO)O[C@@H]2CO)[C@H](O)[C@@H](O)[C@@H]1N[C@H]1C=C(CO)[C@@H](O)[C@H](O)[C@H]1O,> 20 µM,> 20 µM
Cc1ccc2c(-c3ccc(F)cc3)nc(=O)n(C(C)C)c2c1 [FLUPROQUAZONE],> 20 µM,> 20 µM
CC1NCCOC1c1ccccc1 (stereo not given) [PHENMETRAZINE],> 20 µM,> 20 µM
O=c1[nH]c(=O)n([C@H]2C[C@H](O)[C@@H](CO)O2)cc1C(F)(F)F [TRIFLURIDINE],> 20 µM,> 20 µM
CCc1nc(-c2cccc(C)c2)c(-c2ccnc(NC(=O)c3ccccc3)c2)s1 [TAK-715],> 20 µM,> 20 µM
CC(C)NCC(O)COc1ccc(CCOCC2CC2)cc1 (stereo not given) [BETAXOLOL],> 20 µM,> 20 µM
COC(=O)C1=COC(C)C2CN3CCC4(C(=O)Nc5ccccc54)C3CC12 (stereo not given),> 20 µM,> 20 µM
NC(=O)NC(CC(=O)O)C(=O)O (stereo not given),> 20 µM,> 20 µM
CC(C)OC(=O)[C@H](C)N[P@@](=O)(OC[C@@]1(F)O[C@@H](n2ccc(=O)[nH]c2=O)[C@](C)(O)[C@@H]1O)Oc1ccccc1,> 20 µM,> 20 µM
CCN(CC)C(=O)N[C@@H]1CC2c3cccc4[nH]cc(c34)CC2N(C)C1 (stereo not given in full),> 20 µM,> 20 µM
[2H]C([2H])(OC(=O)C(C)C)[C@@]1(CCl)O[C@@H](n2ccc(N)nc2=O)[C@H](F)[C@@H]1OC(=O)C(C)C,> 20 µM,> 20 µM
CCCN1CCC(c2cccc(S(C)(=O)=O)c2)CC1 [PRIDOPIDINE],> 20 µM,> 20 µM
CCCCN(CCCC)CCCOc1c(C)cc(C(=O)c2cc(=O)c3ccccc3o2)cc1C [BUCROMARONE],> 20 µM,> 20 µM
